Measured values as given in publication PMC8815882, “Screening the pandemic response box identified benzimidazole carbamates, Olorofim and ravuconazole as promising drug candidates for the treatment of eumycetoma” (PLoS Neglected Tropical Diseases, 2022).
“And” between values parts separate entries of the source, which are not always exact repeats. Identical values can stand only once. Like-named read-outs stand apart in the source and are kept apart here.

Test system: M. mycetomatis genome strain MM55
Experiment: CLSI M38-A2 based in vitro susceptibility screening (XTT or resazurin), growth at fixed concentration
Type: cell-based, Madurella mycetomatis
Conditions: for activity at 25 µM / activity at 100 µM / Percent fungal survival at 100 µM: Madurella mycetomatis; for Percent fungal survival at 100 µM: read-out: Percentage survival at 100um, 100 uM A (second replicate column)
[1] = 25 uM, mean of three replicates, read-out: Percentage survival at 25um, 25 uM mean
[2] = 25 uM, replicate A, read-out: Percentage survival at 25um, 25 um A
[3] = 25 uM, replicate B, read-out: Percentage survival at 25um, 25 uM B
[4] = 25 uM, replicate C, read-out: Percentage survival at 25um, 25 uM C
[5] = 100 uM, first replicate column, read-out: Percentage survival at 100um, 100 uM A
[6] = 100 uM, mean of three replicates, read-out: Percentage survival at 100um, 100 uM mean
[7] = 100 uM, second replicate column, read-out: Percentage survival at 100um, 100 uM A
[8] = 100 uM, third replicate column, read-out: Percentage survival at 100um, 100 uM A
[9] = 25 uM, mean, read-out: Percentage survival at 25um, 25 uM mean
[10] = 100 uM, mean, read-out: Percentage survival at 100um, 100 uM mean
[11] = 100 uM, replicate (first column), read-out: Percentage survival at 100um, 100 uM A
[12] = 100 uM, replicate (second column), read-out: Percentage survival at 100um, 100 uM A
[13] = 100 uM, replicate (third column), read-out: Percentage survival at 100um, 100 uM A
[14] = 100 uM, replicate 1, read-out: Percentage survival at 100um, 100 uM A (first replicate column)
[15] = 100 uM, replicate 3, read-out: Percentage survival at 100um, 100 uM A (third replicate column)
[16] = 25 uM, mean of three, M. mycetomatis MM55, read-out: Percentage survival at 25um, 25 uM mean
[17] = 25 uM, replicate A, M. mycetomatis MM55, read-out: Percentage survival at 25um, 25 um A
[18] = 25 uM, replicate B, M. mycetomatis MM55, read-out: Percentage survival at 25um, 25 uM B
[19] = 25 uM, replicate C, M. mycetomatis MM55, read-out: Percentage survival at 25um, 25 uM C
[20] = 100 uM, mean of three, M. mycetomatis MM55, read-out: Percentage survival at 100um, 100 uM mean
[21] = 100 uM, replicate 1, M. mycetomatis MM55, read-out: Percentage survival at 100um, 100 uM A (first replicate column)
[22] = 100 uM, replicate 2, M. mycetomatis MM55
[23] = 100 uM, replicate 3, M. mycetomatis MM55, read-out: Percentage survival at 100um, 100 uM A (third replicate column)
[24] = 25 uM, mean of replicates, read-out: Percentage survival at 25um, 25 uM mean
[25] = 100 uM, mean of replicates, read-out: Percentage survival at 100um, 100 uM mean
[26] = 100 uM, replicate 1, read-out: Percentage survival at 100um, 100 uM A
[27] = 100 uM, replicate 2, read-out: Percentage survival at 100um, 100 uM A
[28] = 100 uM, replicate 3, read-out: Percentage survival at 100um, 100 uM A

COc1ccc(C2CNC(=O)C2)cc1OC1CCCC1 (centres unmarked) [MMV003738]
activity at 25 µM [1]: 84.1% | activity at 25 µM [2]: 73% | activity at 25 µM [3]: 88.3% | activity at 25 µM [4]: 90.9% | activity at 100 µM [5]: 78.1% | activity at 100 µM [6]: 75% | activity at 100 µM [7]: 63% | activity at 100 µM [8]: 84%

CC[C@H](CO)Nc1nc(NCc2ccccc2)c2ncn(C(C)C)c2n1 [MMV003820]
Percentage survival at 100um, 100 uM A: 50.7482% and 60.4702% | activity at 25 µM (read-out: Percentage survival at 25um, 25 uM B): 62.4% | activity at 25 µM (read-out: Percentage survival at 25um, 25 uM C): 43.5% | activity at 25 µM (read-out: Percentage survival at 25um, 25 uM mean): 63.8% | activity at 25 µM (read-out: Percentage survival at 25um, 25 um A): 85.5% | activity at 100 µM (read-out: Percentage survival at 100um, 100 uM A): 48.1% | activity at 100 µM (read-out: Percentage survival at 100um, 100 uM mean): 53.1%

Nc1nc(O)ncc1F [MMV004508]
activity at 25 µM [9]: 84% | activity at 25 µM [2]: 87.6% | activity at 25 µM [3]: 87.9% | activity at 25 µM [4]: 76.6% | activity at 100 µM [10]: 89.4% | activity at 100 µM [11]: 93.5% | activity at 100 µM [12]: 81.4% | activity at 100 µM [13]: 93.4%

Cc1[nH]c2ccccc2c1CCNCc1ccc(/C=C/C(=O)NO)cc1 [MMV010036]
activity at 25 µM [1]: 90.9% | activity at 25 µM [2]: 98.2% | activity at 25 µM [3]: 95.9% | activity at 25 µM [4]: 78.7% | activity at 100 µM [5]: 85.9% | activity at 100 µM [6]: 77.1% | activity at 100 µM [7]: 69.6% | activity at 100 µM [8]: 75.6%

COc1ccc2nc(-c3ccccc3)cc(O)c2c1 [MMV011565]
activity at 25 µM [1]: 93.4% | activity at 25 µM [2]: 91.4% | activity at 25 µM [3]: 96.2% | activity at 25 µM [4]: 92.7% | activity at 100 µM [6]: 78.1% | activity at 100 µM [14]: 74.5% | Percent fungal survival at 100 µM (100 uM, replicate 2): 80.2% | activity at 100 µM [15]: 79.6%

O=C(O)c1cc(-c2ccccc2)nc2ccccc12 [MMV018362]
activity at 25 µM [1]: 91.7% | activity at 25 µM [2]: 97.4% | activity at 25 µM [3]: 94.7% | activity at 25 µM [4]: 83% | activity at 100 µM [5]: 91% | activity at 100 µM [6]: 87.9% | activity at 100 µM [7]: 79.7% | activity at 100 µM [8]: 93.1%

CN1CCN(c2ccc3[nH]c(-c4ccc5[nH]c(-c6ccc(O)cc6)nc5c4)nc3c2)CC1 [MMV020752]
activity at 25 µM [16]: 67.2% | activity at 25 µM [17]: 67.7% | activity at 25 µM [18]: 71.6% | activity at 25 µM [19]: 62.2% | activity at 100 µM [20]: 24.3% | activity at 100 µM [21]: 53.4% | Percent fungal survival at 100 µM [22]: 14.6% | activity at 100 µM [23]: 4.7%

Nc1nc(N)c2c(Sc3ccccc3)cccc2n1 [MMV021759]
activity at 25 µM [24]: 88.1% | activity at 25 µM [2]: 63.3% | activity at 25 µM [3]: 65.8% | activity at 25 µM [4]: 135% | activity at 100 µM [25]: 5.59% | activity at 100 µM [26]: -1.97% | activity at 100 µM [27]: 5.6% | activity at 100 µM [28]: 13.1%

Cc1nc(Nc2ccc(F)cc2)nc(N2CCc3ccccc3C2C)c1C (centres unmarked) [MMV030787]
activity at 25 µM [9]: 63.9% | activity at 25 µM [2]: 74.6% | activity at 25 µM [3]: 56.2% | activity at 25 µM [4]: 61.1% | activity at 100 µM [10]: 67.5% | activity at 100 µM [11]: 53.1% | activity at 100 µM [12]: 63.5% | activity at 100 µM [13]: 86%

Nc1nnc(-c2ccc(Cl)cc2)s1 [MMV046261]
activity at 25 µM [24]: 82.4% | activity at 25 µM [2]: 77.9% | activity at 25 µM [3]: 83% | activity at 25 µM [4]: 86.2% | activity at 100 µM [25]: 69.4% | activity at 100 µM [26]: 62.5% | activity at 100 µM [27]: 72.1% | activity at 100 µM [28]: 73.6%

NC(=O)c1c(N)sc2c1CCCCC2 [MMV056052]
activity at 25 µM [1]: 95.4% | activity at 25 µM [2]: 93.9% | activity at 25 µM [3]: 104% | activity at 25 µM [4]: 87.9% | activity at 100 µM [6]: 84.7% | activity at 100 µM [14]: 86.2% | Percent fungal survival at 100 µM (100 uM, replicate 2): 80.1% | activity at 100 µM [15]: 87.9%

CC1CN(c2ncnc3c2c(-c2ccccc2)cn3-c2ccc(F)cc2)CC(C)O1 (centres unmarked) [MMV093250]
activity at 25 µM [16]: 63.7% | activity at 25 µM [17]: 69.5% | activity at 25 µM [18]: 65.3% | activity at 25 µM [19]: 56.2% | activity at 100 µM [20]: 70% | activity at 100 µM [21]: 65.7% | Percent fungal survival at 100 µM [22]: 80.7% | activity at 100 µM [23]: 63.6%
